pIC50: −log10 of the molar value.
target: T1, Alpha-1A adrenergic receptor (Homo sapiens) (UniProt P35348); assay: Inhibition of alpha 1A adrenergic receptor at 1 uM
T1 sequence (whole entry): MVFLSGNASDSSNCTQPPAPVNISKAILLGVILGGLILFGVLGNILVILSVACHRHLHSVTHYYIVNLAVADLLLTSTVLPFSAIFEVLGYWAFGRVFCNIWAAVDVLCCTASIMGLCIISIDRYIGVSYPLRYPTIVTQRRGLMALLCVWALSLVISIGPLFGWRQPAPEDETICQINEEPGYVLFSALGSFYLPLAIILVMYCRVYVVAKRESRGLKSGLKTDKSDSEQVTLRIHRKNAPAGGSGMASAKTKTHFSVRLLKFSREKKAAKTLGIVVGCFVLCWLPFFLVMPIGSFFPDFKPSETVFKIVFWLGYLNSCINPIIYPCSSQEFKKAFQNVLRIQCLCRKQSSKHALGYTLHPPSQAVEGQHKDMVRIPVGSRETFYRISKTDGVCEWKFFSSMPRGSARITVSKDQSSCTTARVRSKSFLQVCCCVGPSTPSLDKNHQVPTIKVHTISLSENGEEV

Compound	inhibition [%]
CS(=O)(=O)N1CCc2c(c(-c3ccc(C(F)(F)F)cc3)nn2CC(O)CN2CCC(N3C(=O)CCc4cc(Cl)ccc43)CC2)C1 (stereo unspecified)	< 10
CS(=O)(=O)N1CCc2c(c(-c3ccc(C(F)(F)F)cc3)nn2CCCN2CCC(N3C(=O)COc4ccccc43)CC2)C1	72
CS(=O)(=O)N1CCc2c(c(-c3ccc(C(F)(F)F)cc3)nn2CC(O)CN2CCC(N3C(=O)COc4ccccc43)CC2)C1 (stereo unspecified)	60
CS(=O)(=O)N1CCc2c(c(-c3ccc(C(F)(F)F)cc3)nn2CC(O)CN2CCC(N3C(=O)NCc4cc(Cl)ccc43)CC2)C1 (stereo unspecified)	40

target: Cathepsin S (Homo sapiens, UniProt P25774)
Sequence (P25774 whole entry): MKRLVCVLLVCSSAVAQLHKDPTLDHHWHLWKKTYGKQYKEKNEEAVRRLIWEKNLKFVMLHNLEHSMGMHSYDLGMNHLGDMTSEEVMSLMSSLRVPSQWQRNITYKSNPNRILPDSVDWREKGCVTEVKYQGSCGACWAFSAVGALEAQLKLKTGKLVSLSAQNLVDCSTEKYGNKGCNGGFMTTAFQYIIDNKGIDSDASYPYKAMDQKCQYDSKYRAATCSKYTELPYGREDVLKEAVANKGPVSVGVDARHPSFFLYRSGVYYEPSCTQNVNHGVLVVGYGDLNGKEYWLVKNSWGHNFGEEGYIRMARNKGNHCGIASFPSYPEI
Description: Inhibition of cathepsin S

Compound	pIC50
CS(=O)(=O)N1CCc2c(c(-c3ccc(C(F)(F)F)cc3)nn2CC(O)CN2CCC(N3C(=O)OCc4ccccc43)CC2)C1 (stereo unspecified)	7.06
CS(=O)(=O)N1CCc2c(c(-c3ccc(Br)cc3)nn2CC(O)CN2CCC(N3CCc4ccccc4C3)CC2)C1 (stereo unspecified)	5.75
CS(=O)(=O)N1CCc2c(c(-c3ccc(Br)cc3)nn2CC(O)CN2CCC(N3c4ccc(Cl)cc4CNS3(=O)=O)CC2)C1 (stereo unspecified)	7.12
CS(=O)(=O)N1CCc2c(c(-c3ccc(C(F)(F)F)cc3)nn2CC(O)CN2CCN(c3ccnc4ccccc34)CC2)C1 (stereo unspecified)	5.77
CS(=O)(=O)N1CCc2c(c(-c3ccc(Br)cc3)nn2CCCN2CCC(N3C(=O)COc4ccccc43)CC2)C1	7.22
CS(=O)(=O)N1CCc2c(c(-c3ccc(C(F)(F)F)cc3)nn2CC(O)CN2CCC(N3C(=O)COc4ccccc43)CC2)C1 (stereo unspecified)	7.55
CS(=O)(=O)N1CCc2c(c(-c3ccc(Br)cc3)nn2CC(O)CN2CCC(N3CCCc4ccccc43)CC2)C1 (stereo unspecified)	6.49
